Source: patent US20140249196A1, “N-BENZYLBENZIMIDAZOLE MODULATORS OF PPARG” (priority 2011, published 2014)

Legend:
GST-PPARG-LBD = target: T1, GST-PPARG-LBD (Homo sapiens, UniProt P37231); experiment: Lanthascreen PPARG competitive binding assay (Invitrogen); conditions: Table 3; for IC50: read-out: IC50 (nM) Lantha
T1 construct: A mixture of 5 nM GST-PPARG-LBD; purchased Invitrogen
T1 sequence (P37231 238-503 limits assumed): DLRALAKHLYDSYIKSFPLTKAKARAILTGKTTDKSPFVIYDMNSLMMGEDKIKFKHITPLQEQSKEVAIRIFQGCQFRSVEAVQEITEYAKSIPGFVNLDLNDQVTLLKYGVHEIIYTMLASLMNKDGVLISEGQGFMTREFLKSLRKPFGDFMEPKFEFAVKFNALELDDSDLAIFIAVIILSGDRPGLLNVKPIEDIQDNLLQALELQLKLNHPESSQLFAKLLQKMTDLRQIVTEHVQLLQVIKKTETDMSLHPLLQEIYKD
Method: Lanthascreen PPARG Competitive Binding Assay (Invitrogen)
The assay was performed according to manufacturer protocol. A mixture of 5 nM GST-PPARG-LBD, 5 nM Tb-GST-antibody, 5 nM Fluormone Pan-PPAR Green, and serial dilutions of the experimental compound, beginning at 10 μM downwards, was added to wells of black 384-well low-volume plates (Greiner) to a total volume of 18 μL. All dilutions were made in TR-FRET assay buffer C. DMSO at 2% final concentration was used as a no-ligand control. Experiment was performed in triplicate, and incubated for 2 hours in the dark prior to assay read in Perkin Elmer ViewLux ultra HTS microplate reader. FRET signal was measured by excitation at 340 nm and emission at 520 nm for fluorescein and 490 nm for terbium. Fold change over DMSO was calculated using GraphPad Prism Software (La Jolla, Calif.) by calculating 520 nm/490 nm ratio. Graphs were plotted as fold change of FRET signal for compound treatment over DMSO-only control.

PPARG [1] = target: T2, PPARG (Homo sapiens, UniProt P37231); experiment: Gal4 transactivation assay; assay type: cell-based; conditions: Table 3
T2 construct: own inference from the column head
T2 sequence (P37231 1-505): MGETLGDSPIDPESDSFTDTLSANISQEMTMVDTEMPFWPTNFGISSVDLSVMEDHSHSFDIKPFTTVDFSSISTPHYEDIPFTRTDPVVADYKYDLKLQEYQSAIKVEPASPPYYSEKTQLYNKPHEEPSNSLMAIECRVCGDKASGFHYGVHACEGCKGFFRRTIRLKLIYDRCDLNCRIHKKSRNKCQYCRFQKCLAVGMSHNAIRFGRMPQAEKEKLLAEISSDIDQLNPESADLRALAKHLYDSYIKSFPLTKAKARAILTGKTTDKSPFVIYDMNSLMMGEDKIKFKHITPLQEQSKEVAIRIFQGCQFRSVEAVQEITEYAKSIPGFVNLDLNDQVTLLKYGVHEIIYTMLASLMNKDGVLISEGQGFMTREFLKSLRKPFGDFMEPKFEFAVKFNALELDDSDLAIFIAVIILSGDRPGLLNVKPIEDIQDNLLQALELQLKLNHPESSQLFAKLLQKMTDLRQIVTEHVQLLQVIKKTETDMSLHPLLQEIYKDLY

PPARG [2] = experiment: Cell-based transactivation assay (3xPPRE-luciferase reporter, COS-1 cells co-transfected with PPARG); set-up: species or system murine or human (not said which for the values)
Method: Cell-Based Transactivation Assay: PPRE is a DNA that contains a binding site for PPARG; thus PPRE is a PPAR response element, used herein as a promoter reporter. The binding site is a DR1 response element with the sequence [NT] repeated 3 times in tandem and then fused to a construct for luciferase. Thus, PPRE is the basis of the cell based transactivation assay described below. The plasmid DNA is co-transfected along with a plasmid for PPARG into COS-1 cells. After an overnight incubation, cells are treated with DMSO or compounds. […] Transfected cells were plated in white Perkin Elmer 384-well plates and incubated 4 hours. […] After 18 hour incubation, treated cells were developed with Brite Lite Plus (Perkin Elmer) and read in 384-well Luminescence Perkin Elmer EnVision Multilabel plate reader. Graphs were plotted in triplicate in GraphPad Prism Software as fold change of treated cells over DMSO control cells.

| Compound | IC50 (GST-PPARG-LBD) [nM] | other results |
| --- | --- | --- |
| CC(C)CCC(C)NC(=O)c1ccc2c(c1)ncn2Cc1ccc(Cl)cc1 (stereo not drawn) [Cpd 30] | 42.3 | EC50 (PPARG [1]): 636 nM; GL4 % act 1 μM (PPARG [1]): 96.37%; GL4 % act 10 μM (PPARG [1]): 109.37% |
| CC(C)c1cccc([C@@H](C)NC(=O)c2ccc3c(c2)ncn3Cc2ccc(Cl)cc2)c1 [Cpd 50] | 162 | EC50 (PPARG [1]): 44.1 nM; GL4 % act 1 μM (PPARG [1]): 54.52% |
| CC(C)c1cccc([C@H](C)NC(=O)c2ccc3c(c2)ncn3Cc2ccc(Cl)nc2)c1 [Cpd 49] | 2050 | – |
| O=C(NCC1CC1)c1ccc2c(c1)ncn2Cc1ccc(Cl)cc1 [Cpd 20] | 18300 | – |
| CCOCCNC(=O)c1ccc2c(c1)ncn2Cc1ccc(Cl)cc1 [Cpd 23] | 3710 | – |
| Cc1nc2cc(C(=O)N[C@@H](C)c3cccc(C(C)C)c3)ccc2n1Cc1cccc(O[C@@H](C)C(=O)O)c1 [Cpd 33] | 2420 | – |
| CC(C)CCC(C)NC(=O)c1ccc2c(c1)ncn2[C@H](C)c1ccc(Cl)cc1 (stereo partly drawn) [Cpd 48] | 1260 | – |
| COC(=O)[C@@H](NC(=O)c1ccc2c(c1)ncn2Cc1ccc(Cl)cc1)c1ccccc1 [Cpd 43] | 237 | EC50 (PPARG [1]): 752 nM; GL4 % act 1 μM (PPARG [1]): 51.21% |
| CC[C@H](NC(=O)c1ccc2c(c1)ncn2Cc1ccc(Cl)cc1)c1ccccc1 [Cpd 52] | 403 | EC50 (PPARG [1]): 99.3 nM; GL4 % act 1 μM (PPARG [1]): 30.41% |
| C[C@H](NC(=O)c1ccc2c(c1)ncn2Cc1ccc(Cl)cc1)c1ccc(Br)cc1 [Cpd 16] | 2380 | – |
| CC(C)c1cccc([C@H](C)NC(=O)c2ccc3c(c2)ncn3[C@H](C)c2ccc(Cl)cc2)c1 [Cpd 41] | 11000 | – |
| CC(C)CC(C)NC(=O)c1ccc2c(c1)ncn2[C@H](C)c1ccc(Cl)cc1 (stereo partly drawn) [Cpd 47] | 8400 | – |
| COCCCNC(=O)c1ccc2c(c1)ncn2Cc1ccc(Cl)cc1 [Cpd 22] | 7330 | – |
| Cc1nc2cc(C(=O)N[C@@H](C)c3cccc(Br)c3)ccc2n1Cc1cccc(O[C@H](C)C(=O)O)c1 [Cpd 21] | – | IC50 (nM) Lantha (GST-PPARG-LBD): 1e+08 nM |
| O=C(NCC1CCC1)c1ccc2c(c1)ncn2Cc1ccc(Cl)cc1 [Cpd 29] | 7950 | – |
| C[C@@H](CO)NC(=O)c1ccc2c(c1)ncn2Cc1ccc(Cl)cc1 [Cpd 46] | 24400 | – |
| CC(C)c1cccc([C@H](C)NC(=O)c2ccc3c(c2)ncn3Cc2ccc(Cl)cc2)c1 [Cpd 17] | 4400 | – |
| COCCNC(=O)c1ccc2c(c1)ncn2Cc1ccc(Cl)cc1 [Cpd 24] | 6360 | – |

| Compound | IC50 (GST-PPARG-LBD) [nM] | other results |
| --- | --- | --- |
| CC(C)CC(C)NC(=O)c1ccc2c(c1)ncn2Cc1ccc(Cl)cc1 (stereo not drawn) [Cpd 31] | 31.8 | EC50 (PPARG [1]): 12200 nM; GL4 % act 1 μM (PPARG [1]): 34.29%; GL4 % act 10 μM (PPARG [1]): 68.66% |
| C[C@@H](CC1CCOCC1)NC(=O)c1ccc2c(c1)ncn2Cc1ccc(Cl)cc1 [Cpd 19] | 2100 | – |
| COCCOCc1ccc2c(c1)ncn2Cc1ccc(Cl)cc1 [Cpd 36] | 13700 | – |
| COC[C@H](C)NC(=O)c1ccc2c(c1)ncn2Cc1ccc(Cl)cc1 [Cpd 25] | 5220 | – |
| COc1ccc(C(=O)n2c(C)c(Cc3cccc(O[C@@H](C)C(=O)O)c3)c3cc(OC(F)(F)F)ccc32)cc1 [MRL24] | – | transactivation of the reporter, % of rosiglitazone response (PPARG [2]; relative to rosiglitazone): about 25% |
| CC(C)CCNC(=O)c1ccc2c(c1)ncn2Cc1ccc(Cl)cc1 [Cpd 34] | 1090 | – |
| CC[C@@H](NC(=O)c1ccc2c(c1)ncn2Cc1ccc(Cl)cc1)c1ccccc1 [Cpd 51] | 1050 | EC50 (PPARG [1]): 3910 nM; GL4 % act 1 μM (PPARG [1]): 76.12% |
| COC[C@@H](NC(=O)c1ccc2c(c1)ncn2Cc1ccc(Cl)cc1)C(C)C [Cpd 39] | 612 | EC50 (PPARG [1]): 442 nM; GL4 % act 1 μM (PPARG [1]): 62.18% |
| CCCc1nc2cc(C(=O)N[C@@H](C)c3cccc(C(C)C)c3)ccc2n1Cc1cccc(O[C@@H](C)C(=O)O)c1 [Cpd 35] | 2410 | – |
| CN(CCOc1ccc(CC2SC(=O)NC2=O)cc1)c1ccccn1 (stereo not drawn) [rosiglitazone] | – | activation of the PPRE reporter (PPARG [2]; over DMSO): about 5 fold |
| CC(C)[C@@H](CO)NC(=O)c1ccc2c(c1)ncn2Cc1ccc(Cl)cc1 [Cpd 40] | 3250 | – |
| CCCCNC(=O)c1ccc2c(c1)ncn2Cc1ccc(Cl)cc1 [Cpd 28] | 1420 | – |
| O=C(N[C@H](CO)c1ccccc1)c1ccc2c(c1)ncn2Cc1ccc(Cl)cc1 [Cpd 42] | 921 | – |
| CC(C)c1cccc([C@H](C)NC(=O)c2ccc3c(c2)ncn3[C@@H](C)c2ccc(Cl)cc2)c1 [Cpd 15] | 2520 | – |
| O=C(NCC[C@H]1CCO1)c1ccc2c(c1)ncn2Cc1ccc(Cl)cc1 [Cpd 26] | 6770 | – |
| CCc1nc2cc(C(=O)N[C@@H](C)c3cccc(C(C)C)c3)ccc2n1Cc1cccc(O[C@@H](C)C(=O)O)c1 [Cpd 32] | 2030 | – |
| COC(=O)[C@H](C)NC(=O)c1ccc2c(c1)ncn2Cc1ccc(Cl)cc1 [Cpd 38] | 2160 | – |
